Laboratory results from patent US4057545A, “Imidazole derivatives” (Nordmark-Werke GmbH Hamburg, priority 1975, dated 1977).

Legend:
[1] = LD50 (mice); settings: mouse, in vivo
[2] = test system: Candida albicans; assay: oral effectiveness in Candida-infected mice (survival); assay type: in vivo; settings: 100 mg/kg twice daily for 7 days
Description: Accordingly, the compounds according to the invention are particularly suitable for the oral treatment of generalized infections by fungi and yeasts in human and veterinary medicine. Since the hitherto available medicaments are not yet satisfactory (Lit.: Infection 2, (1974) 95-107), they represent a valuable addition to pharmacology. In addition, they may be used equally effectively for the local treatment of surface infections and for the treatment of infections of the mucosa excessible to local treatment. Typical diseases of thiskind, for the treatment of which the compounds of the present invention are particular useful, are for instance generalized candidoses, candidoses of the lungs, of the skin or of the genitals or generalized trichophytoses (tineas) or trichophytoses of the skin, of the nails or of the hair.
In order to determine the oral effectiveness of the compounds, groups of 10 mice each weighing approximately 20 g were each treated i.m for 2 days with 50 mg/kg of hydrocortisone to ensure effective development of the infection. The mice were then each infected i.v. with 500,000 Candida albicans germs and thereafter were treated twice daily for 7 days with 100 mg/kg of the substance to be tested. In addition to an infected, but untreated control group, one group was treated with the reference substance Miconazole for comparison.

[3] = mice; literature value; cited from earlier work
[4] = test system: Candida albicans; assay: series dilution test in vitro, Cand. alb.; assay type: cell-based; set-up: key: .phi.: complete inhibition; (+): strong inhibition; +: moderate inhibition; ++: slight inhibition; +++: no inhibition; settings: for inhibition of Cand. alb., 1st value: dilution 1: 10,000; for inhibition of Cand. alb., 2nd value: dilution 1: 100,000
Method: (§1) The new compounds and their salts are valuable agents for controlling fungi and yeasts and, in addition, are also active against several types of bacteria. To test the antimicrobial activity of the new compounds in vitro, they were tested in a series dilution test with dilutions of from 1:10,000 to 1:100,000 for their effectiveness against the germs Staphylococcus aureus, Trichophyton mentagrophytes and Candida albicans.

[5] = test system: Staphylococcus aureus; assay: series dilution test in vitro, Staph. aur.; assay type: cell-based; set-up: key: .phi.: complete inhibition; (+): strong inhibition; +: moderate inhibition; ++: slight inhibition; +++: no inhibition; settings: for inhibition of Staph. aur., 1st value: dilution 1: 10,000; for inhibition of Staph. aur., 2nd value: dilution 1: 100,000
Method: as §1

[6] = test system: Trichophyton mentagrophytes; assay: series dilution test in vitro, Trichoph.; assay type: cell-based; set-up: key: .phi.: complete inhibition; (+): strong inhibition; +: moderate inhibition; ++: slight inhibition; +++: no inhibition; settings: for inhibition of Trichoph., 1st value: dilution 1: 10,000; for inhibition of Trichoph., 2nd value: dilution 1: 100,000
Method: as §1

Structure (SMILES) | LD50 [1] | animals still alive on the last day of the treatment [2] | LD50 (Lit.) [3] | inhibition of Cand. alb., 1st value [4] | inhibition of Cand. alb., 2nd value [4] | inhibition of Staph. aur., 1st value [5] | inhibition of Staph. aur., 2nd value [5] | inhibition of Trichoph., 1st value [6] | inhibition of Trichoph., 2nd value [6]
Clc1ccc(C(=Cc2ccc(Cl)cc2Cl)Cn2ccnc2)cc1 [A, 1-(2,4-dichlorophenyl)-2-(4-chlorophenyl)-3-(imidazolyl-1)-propene-1-nitrate] | ~1000 mg/kg |  |  |  |  |  |  |  | 
Clc1ccc(C=C(Cn2ccnc2)c2ccc(Cl)cc2)cc1 [B, 1-(4-chlorophenyl)-2-(4-chlorophenyl)-3-(imidazolyl-1)-propene-1-nitrate] | ~1000 mg/kg |  |  |  |  |  |  |  | 
Clc1ccc(C(=Cc2ccccc2)Cn2ccnc2)cc1 [C, 1-phenyl-2-(4-chlorophenyl)-3-(imidazolyl-1)-propene-1-nitrate] | ~1000 mg/kg |  |  |  |  |  |  |  | 
Clc1ccc(C=C(Cn2ccnc2)c2ccccc2)c(Cl)c1 [D, 1-(2,4-dichlorophenyl)-2-phenyl-3-(imidazolyl-1)-propene-1-nitrate] | ~1000 mg/kg |  |  |  |  |  |  |  | 
Clc1ccc(C=C(Cn2ccnc2)c2ccc(Cl)cc2Cl)c(Cl)c1 [E, 1,2-bis-(2,4-dichlorophenyl)-3-(imidazolyl-1)-propene-1-nitrate] | ~2000 mg/kg |  |  |  |  |  |  |  | 
Clc1ccc(C=C(Cn2ccnc2)c2ccc(Cl)cc2Cl)cc1 [F, 1-(4-chlorophenyl)-2-(2,4-dichlorophenyl)-3-(imidazolyl-1)-propene-1-nitrate] | ~2000 mg/kg |  |  |  |  |  |  |  | 
Clc1ccc(C(=Cc2ccc(Br)cc2)Cn2ccnc2)c(Cl)c1 [G, 1-(4-bromophenyl)-2-(2,4-dichlorophenyl)-3-(imidazolyl-1)-propene-1-nitrate] | ~1000 mg/kg |  |  |  |  |  |  |  | 
Clc1ccc(COC(Cn2ccnc2)c2ccc(Cl)cc2Cl)c(Cl)c1 (stereo not drawn) [Miconazole, 1-[2,4-dichloro-β-(2,4,-dichlorobenzyloxy)-phenethyl]-imidazole nitrate] |  | 20% | 578 mg/kg |  |  |  |  |  | 
Brc1ccc(C=C(Cn2ccnc2)c2ccc(Br)cc2)cc1 [n=0, R1=4-Br, R2=H, R3=4-Br, R4=H] |  |  |  | .phi. | ++ | .phi. | .phi. | .phi. | .phi.
Cc1ccc(C(=Cc2ccc(Cl)cc2Cl)Cn2ccnc2)cc1 [n=0, R1=4-CH3, R2=H, R3=2-Cl, R4=4-Cl] |  |  |  | .phi. | (+) | .phi. | .phi. | .phi. | .phi.
Clc1ccc(C(=Cc2ccc(Br)cc2)Cn2ccnc2)c(Cl)c1 [n=0, R1=4-Cl, R2=2-Cl, R3=4-Br, R4=H] |  |  |  | .phi. | ++ | .phi. | .phi. | .phi. | .phi.
Clc1ccc(C(=Cc2ccc(Cl)c(Cl)c2)Cn2ccnc2)c(Cl)c1 [n=0, R1=4-Cl, R2=2-Cl, R3=4-Cl, R4=3-Cl] |  |  |  | .phi. | ++ | .phi. | .phi. | .phi. | .phi.
Clc1ccc(C(=Cc2ccc(Br)cc2)Cn2ccnc2)cc1 [n=0, R1=4-Cl, R2=H, R3=4-Br, R4=H] |  |  |  | .phi. | ++ | .phi. | .phi. | .phi. | .phi.
Clc1ccc(C=C(Cn2ccnc2)c2ccc(Cl)cc2)cc1 [n=0, R1=4-Cl, R2=H, R3=4-Cl, R4=H] |  |  |  | .phi. | (+ ) | .phi. | .phi. | .phi. | .phi.
COc1ccc(C(=Cc2ccccc2)Cn2ccnc2)cc1 [n=0, R1=H, R2=4-OCH3, R3=H, R4=H] |  |  |  | .phi. | +++ | .phi. | .phi. | .phi. | .phi.
Clc1ccc(C=C2c3cc(Cl)ccc3CC2n2ccnc2)c(Cl)c1 (stereo not drawn) [n=1, R1=6-Cl, R2=H, R3=4-Cl, R4=2-Cl] |  |  |  | .phi. | +++ | .phi. | .phi. | .phi. | .phi.
Clc1ccc(C=C2c3cc(Cl)ccc3CC2n2ccnc2)cc1 (stereo not drawn) [n=1, R1=6-Cl, R2=H, R3=4-Cl, R4=H] |  |  |  | .phi. | ++ | .phi. | .phi. | .phi. | .phi.
Clc1ccc(C=C2c3ccccc3CC2n2ccnc2)cc1Cl (stereo not drawn) [n=1, R1=H, R2=H, R3=3-Cl, R4=4-Cl] |  |  |  | .phi. | ++ | .phi. | .phi. | .phi. | .phi.
Clc1ccc(C=C2c3ccccc3CC2n2ccnc2)cc1 (stereo not drawn) [n=1, R1=H, R2=H, R3=H, R4=4-Cl] |  |  |  | .phi. | ++ | .phi. | .phi. | .phi. | .phi.
Clc1ccc(C=C2c3ccccc3CCC2n2ccnc2)cc1 (stereo not drawn) [n=2, R1=H, R2=H, R3=H, R4=4-Cl] |  |  |  | .phi. | ++ | .phi. | .phi. | .phi. | .phi.
C(=C1c2ccccc2CCC1n1ccnc1)c1ccccc1 (stereo not drawn) [n=2, R1=H, R2=H, R3=H, R4=H] |  |  |  | .phi. | +++ | .phi. | .phi. | .phi. | .phi.
